The text below walks through data of patent US10828305B2 (SHANGHAI PHARMACEUTICALS HOLDING CO., LTD., priority 2016, dated 2020).

The subject of assay [1] is human gastric cancer NCI-N87 xenograft. Briefly: HER2 overexpressing human gastric cancer NCI-N87 xenograft model in nude mice. Type of assay: in vivo, Balb/c nude mice. Conditions: oral, 22 days.
The next assay deals with BT-474. Briefly: Proliferation inhibition assay in vitro, BT-474 (CellTiter-Glo). The format is cell-based. Particulars: Homo sapiens, 72 hours, read-out: IC50(nM) cell BT-474. Put shortly: (§1)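 Cells were seeded at 8.8×10^4 cells/mL for BT-474 or 6.6×10^4 cells/mL for N87 and grown overnight. Compound was added at 9 concentrations in duplicate for 72 h at 37 °C, 5% CO2. Viability was measured by CellTiter-Glo.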

The target of the next assay is EGFR kinase (Homo sapiens, UniProt P00533). Briefly: Enzymatic experiment on EGFR (HTRF kinEASE-TK). The format is biochemical. Conditions: ATP 1.65 μM; read-out: Kinase IC50 (nM) in vitro EGFR. The essentials: (§2)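 HTRF kinEASE-TK with biotinylated TK substrate in HEPES pH 7.0 buffer containing MnCl2, MgCl2 and DTT; ErbB2 at 0.06 ng/μl with 4 μM ATP, EGFR at 0.06 units/μl with 1.65 μM ATP, 30 min at room temperature after 5 min enzyme/substrate–compound preincubation. Ten-point 3-fold dilutions; Eu antibody/SA-XL665 detection, 665/620 ratio.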
Sequence of EGFR kinase (P00533 25-1210): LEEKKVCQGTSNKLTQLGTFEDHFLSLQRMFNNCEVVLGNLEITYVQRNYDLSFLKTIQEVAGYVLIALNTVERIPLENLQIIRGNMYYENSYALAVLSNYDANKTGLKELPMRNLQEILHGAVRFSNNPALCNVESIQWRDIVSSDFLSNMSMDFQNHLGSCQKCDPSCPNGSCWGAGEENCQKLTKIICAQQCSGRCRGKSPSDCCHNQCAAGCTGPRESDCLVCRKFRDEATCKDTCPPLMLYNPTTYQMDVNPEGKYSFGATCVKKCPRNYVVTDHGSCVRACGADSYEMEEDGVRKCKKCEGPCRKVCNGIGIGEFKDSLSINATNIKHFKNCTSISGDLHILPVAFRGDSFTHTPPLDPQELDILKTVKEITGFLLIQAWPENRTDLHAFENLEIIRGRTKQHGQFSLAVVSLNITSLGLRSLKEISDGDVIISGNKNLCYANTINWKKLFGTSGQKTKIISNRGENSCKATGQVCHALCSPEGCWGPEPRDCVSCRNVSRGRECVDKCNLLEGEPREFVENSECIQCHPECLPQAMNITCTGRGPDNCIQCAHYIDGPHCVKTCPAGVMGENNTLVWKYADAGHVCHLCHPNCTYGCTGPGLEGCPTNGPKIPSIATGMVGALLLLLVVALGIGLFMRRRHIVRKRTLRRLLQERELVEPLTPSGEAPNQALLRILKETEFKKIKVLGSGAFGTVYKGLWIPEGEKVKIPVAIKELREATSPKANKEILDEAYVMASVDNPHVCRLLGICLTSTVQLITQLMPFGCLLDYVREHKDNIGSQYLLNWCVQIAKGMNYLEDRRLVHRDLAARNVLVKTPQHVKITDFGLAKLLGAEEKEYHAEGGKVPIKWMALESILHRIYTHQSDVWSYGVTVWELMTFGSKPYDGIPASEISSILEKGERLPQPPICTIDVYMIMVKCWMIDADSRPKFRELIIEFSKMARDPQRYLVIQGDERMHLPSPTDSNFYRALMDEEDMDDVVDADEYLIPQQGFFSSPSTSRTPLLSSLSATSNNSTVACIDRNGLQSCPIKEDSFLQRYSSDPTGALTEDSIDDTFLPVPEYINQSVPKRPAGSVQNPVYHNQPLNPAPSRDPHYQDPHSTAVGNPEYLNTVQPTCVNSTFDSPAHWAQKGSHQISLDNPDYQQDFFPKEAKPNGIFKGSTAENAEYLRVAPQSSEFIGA

The subject of a further assay is N87. Briefly: Proliferation inhibition assay in vitro, N87 (CellTiter-Glo). Type of assay: cell-based. Conditions: Homo sapiens; 72 hours; read-out: IC50(nM) cell N87. Put shortly: as §1
The target of the next assay is ErbB2 kinase (Homo sapiens, UniProt P04626). Briefly: Enzymatic experiment on ErbB2 (HTRF kinEASE-TK). The format is biochemical. Conditions: ATP 4 μM; read-out: Kinase IC50 (nM) in vitro ErbB2. Put shortly:
as §2

Sequence of ErbB2 kinase (P04626 23-1255): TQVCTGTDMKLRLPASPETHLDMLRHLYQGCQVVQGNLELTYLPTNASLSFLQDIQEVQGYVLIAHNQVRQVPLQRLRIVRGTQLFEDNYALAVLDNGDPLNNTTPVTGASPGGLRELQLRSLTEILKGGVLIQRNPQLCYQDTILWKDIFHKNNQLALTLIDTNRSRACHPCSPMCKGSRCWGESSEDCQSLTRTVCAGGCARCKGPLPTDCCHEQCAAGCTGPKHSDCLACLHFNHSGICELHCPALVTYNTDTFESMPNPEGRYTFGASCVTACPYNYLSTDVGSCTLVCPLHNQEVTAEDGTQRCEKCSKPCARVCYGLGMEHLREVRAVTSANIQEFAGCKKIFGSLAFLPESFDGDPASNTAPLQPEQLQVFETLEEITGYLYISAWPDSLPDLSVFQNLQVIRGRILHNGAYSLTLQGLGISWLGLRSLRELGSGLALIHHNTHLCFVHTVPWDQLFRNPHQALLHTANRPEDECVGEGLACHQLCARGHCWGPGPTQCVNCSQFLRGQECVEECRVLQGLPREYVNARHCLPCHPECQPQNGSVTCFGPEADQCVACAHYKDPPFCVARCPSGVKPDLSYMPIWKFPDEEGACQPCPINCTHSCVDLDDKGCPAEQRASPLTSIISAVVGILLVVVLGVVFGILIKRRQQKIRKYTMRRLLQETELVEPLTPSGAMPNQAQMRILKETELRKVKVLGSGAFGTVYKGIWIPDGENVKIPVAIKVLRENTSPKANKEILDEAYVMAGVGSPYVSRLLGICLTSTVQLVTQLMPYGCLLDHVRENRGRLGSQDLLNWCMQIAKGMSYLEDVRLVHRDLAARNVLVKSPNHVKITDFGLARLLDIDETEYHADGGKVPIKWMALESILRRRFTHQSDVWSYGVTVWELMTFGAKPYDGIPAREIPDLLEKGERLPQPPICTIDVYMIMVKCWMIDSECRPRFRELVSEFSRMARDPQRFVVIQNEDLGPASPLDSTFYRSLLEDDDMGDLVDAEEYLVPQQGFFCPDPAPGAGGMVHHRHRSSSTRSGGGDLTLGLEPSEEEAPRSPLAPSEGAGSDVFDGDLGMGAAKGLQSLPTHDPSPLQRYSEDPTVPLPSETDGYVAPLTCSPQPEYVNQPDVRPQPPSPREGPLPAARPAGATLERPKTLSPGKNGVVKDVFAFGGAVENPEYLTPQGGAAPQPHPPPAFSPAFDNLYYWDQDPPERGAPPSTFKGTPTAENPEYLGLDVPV

Consider `Cc1cc(Nc2ncnc3ccc(NC4=NC(C)(C)CO4)cc23)ccc1Oc1ccn2ncnc2c1` [ARRY-380, reference compound], for which the “tumor volume inhibition rate (GI %)” value in assay [1] (50MPK) turned out to be 59.5%.
Regarding `Cc1cc(Nc2ncnc3ccc(NC4=NC(C)(C)CO4)cc23)ccc1Oc1cc2nncn2cn1` [Embodiment 4, N^4-(4-([1,2,4]triazolo[4,3-c]pyrimidin-7-yloxy)-3-methylphenyl)-N^6-(4,4-dimethyl-4,5-dihydrooxazol-2-yl)quinazoline-4,6-diamine], the entries for the “tumor volume inhibition rate (GI %)” value in assay [1] (50MPK) and in assay [1] (100MPK) were 84.3% and 117.9%, respectively. The IC50 is 19.7 nM in the assay on BT-474, 44.3 nM at EGFR kinase, 23 nM with N87 and 2.4 nM at ErbB2 kinase.
